Key:
[1] = Blood biochemistry and hepatic histopathology in tumor-bearing mice after multiple dosing; type: in vivo; conditions: 4 mg/kg i.v. once every two days
Description: (§1) Safety of the liposomes in vivo was evaluated by blood biochemical analysis, H&E staining and Masson staining of tissues. Briefly, following i.v. administration of normal saline, LP, API-1 or API-LP in the BALB/c nude mice, the peripheral blood samples were collected using heparin and centrifuged for serum biochemical analysis. The tissue samples were simultaneously excised and fixed in 4% PFA. Blood ALT, AST, TBIL, ALB, UREA and total protein analyses were performed using BioAssay Systems blood chemistry assay kits following the manufacturer's instructions. The tissue samples were embedded in paraffin, then cut into 5 μm thick paraffin sections and subsequently placed on glass slide. The slides were stained with H&E. The histopathological alterations were observed and imaged with a light microscope (OLYMPUS BX43).
In order to facilitate the judgment of the positivity and degree of hepatic injury of mice, an ace hepatic injury mice model was built by treating mice with tetracycline by gavage at dose of 500 mg/kg. Mice were fasted after oral tetracycline for 30 h and then were executed. The serum ALT, AST, TBIL and hepatic histopathological examinations were performed to evaluate liver injuries.
The experimental tissues were fixed with formalin and embedded in paraffin. Sections with 5 μm in thickness were prepared for H&E staining, Masson staining and immunostaining with anti-RIP3 antibody (Abcam). The images were acquired on an Olympus digital camera attached to a light microscope.

[2] = In vitro drug release by dialysis at pH 7.4; type: physicochemical; conditions: PBS pH 7.4 with 0.5% Tween-80, 37 °C
Description: In vitro release of API-1 from API-LP was investigated in a simulated blood pH environment (pH 7.4). Briefly, 1 mL API-LP diluted ten times in advance was used to determine the initial API-1 concentration, and the remaining 9 mL was dialyzed in a dialysis bag (3500 Da) in 50 mL PBS (pH 7.4) containing 0.5% Tween-80. The experiment was performed in triplicate at 37°C with shaking at 100 rpm for one week. Samples were withdrawn at prescheduled sampling time points and replaced with the same volume of release buffer each time. The samples were quantified by high performance liquid chromatography (HPLC).

[3] = Pharmacokinetic study in BALB/c mice; type: in vivo; conditions: 10 mg/kg i.v.
Description: The pharmacokinetic performance of API-LP was assessed in BALB/c mice. Following overnight fasting, six mice were randomized into two groups and received i.v. injection of free API-1 in 1 × PBS (pH 7.4) with 5% DMSO and API-LP in 1 × PBS (pH 7.4), respectively, at 10 mg/kg dose. At the prescheduled sampling time points, 20 μL blood samples were collected through caudal vein bleeding into heparinized centrifuge tube, followed by the centrifugation to obtain plasma, which was then stored at -80 °C until determination of the drug concentration.
For API-1 quantitation, plasma samples were thawed to room temperature. API-1 was extracted using acetonitrile and quantified by HPLC with QTRAP 5500 tandem mass spectrometry (LC/MS/ MS) system. The pharmacokinetic parameters based on the measured concentrations were calculated using GraphPad Prism (GraphPad Software).

XPO5 = XPO5 subcellular distribution (confocal imaging, fractionation and Western blotting); type: cell-based, human; conditions: 1 μM, SK-Hep1
Description: SK-Hep1 cells cultured on glass coverslips after different treatments were fixed in 4% PFA for 20 min, permeabilized with 0.5% Triton X-100 for 10 min, blocked with 5% BSA, and then incubated with primary anti-XPO5 antibody at 4 °C overnight, followed by incubation with Alexa Fluor dye- conjugated secondary antibodies for 1 h. Then the nuclei were stained with DAPI for 5 min at room temperature before mounting in Immu-Mout (Thermo fisher). Confocal fluorescence images were captured using Leica TCS SP5 II confocal spectral microscope.
For total protein preparation, cells were lysed on ice for 20 min in the RIPA lysis buffer (Beyotime) with protease inhibitor cocktail (Bimake), followed by centrifugation at 12000 rpm for 10 min at 4 °C. The resultant proteins in the supernatants were stored at -80 °C or directly subjected to SDS-PAGE. For nuclear-cytoplasmic fractionation of proteins, RLN buffer (5 mM Tris-HCl pH 7.4, 1.5 mM MgCl2, 140 mM NaCl, 0.5% NP-40) was freshly prepared when used. SK-Hep1 cells were harvested and gently resuspended in 200 µL RLN buffer with protease inhibitor cocktail, followed by centrifugation at 300 g for 2 minutes at 4 °C, the resultant supernatants are the cytoplasmic proteins. […] The signals were detected using ECL reagents (Life Technologies).

SK-Hep1 tumors [4] = assay: SK-Hep1 xenograft in BALB/c nude mice; type: in vivo
Description: SK-Hep1 cells during the exponential-growth phase were collected and suspended in saline solution containing 50% Matrigel (Corning) at 5 × 10^7/mL. Then 100 μL of cells were injected into female BALB/c nude mice (5 weeks old) subcutaneously. Tumor growth was recorded every 3 days, and the tumor volume was calculated as ab^2/2 (a, long diameter; b, short diameter). All mice were randomized into 4 groups (8 mice per group) when the tumor volume reached 150-200 mm^3 and then were intravenously injected with normal saline, LP, free API-1 or API-LP at the 4 mg/kg dosage once every two days. At the end of the treatment, tumors were removed from mice and RNAs were extracted for miRNA detection.
Quantitative RT-PCR was used to assess miRNA expression levels. Total RNAs were extracted by TRIzol reagent (Invitrogen) from cells and transcribed by M-MLV reverse transcriptase (Invitrogen). Hairpin-it^TM real-time PCR miRNA kit for miR-122, let-7a, miR-29b and miR-146a were purchased from Shanghai GenePharma Co., Ltd (China). The miRNA levels were determined by Applied Biosystems StepOne Plus Real-Time PCR Systems using SYBR green master mix (Thermo fisher). Small endogenous nucleolar U6 RNA was used as internal control for miRNA normalization.

SK-Hep1 tumors [5] = test system: SK-Hep1 tumors; parameters: method as in PMID 29381806; conditions: free API-1, mice, ref [15]; cited from earlier work
SK-Hep1 cells = assay: MTT cell viability assay; type: cell-based, human; conditions: 72 h
Description: MTT assay was conducted to estimate cell viability. Briefly, SK-Hep1 cells were seeded in a 96-well culture plate (2000 cells/well) and then treated with different concentrations of API-LP or free API-1 at 72 h in a 5% CO2 incubator for indicated time. At the end of incubation, 10 µL of MTT solution (5 mg/mL) was added into each well. After a 3 h incubation, DMSO (100 μL) was added to dissolve the resultant purple formazan crystals. The absorbance was measured at 570 nm on Thermo Scientific Varioskan Flash Multimode Reader.

[6] = In vivo safety study, single 100 mg/kg i.v. dose in BALB/c nude mice
Description: as §1

[7] = 4 mg/kg i.v. once every two days, SK-Hep1 xenograft

## API-1
[1]
  ALT Mean: 39.67 U/L
  AST Mean: 133.67 U/L
  TBIL Mean: 1.70 µmol/L
[2]
  release in the first 12 h of dialysis: 81.6%
[3]
  API-1 plasma concentration at 24 h postdose: 34.8 ng/mL
[3]; n=3
  Clearance: 72.75 ± 3.93 mL/h
  Half-life t1/2: 6.31 ± 0.66 h
XPO5
  nucleus-to-cytoplasm export of XPO5: restored the export of XPO5 to cytoplasm
SK-Hep1 tumors [4]; [7]
  body weight: did not impact body weight
  tumor growth and tumor volume: significantly suppressed tumor growth and reduced tumor volume
SK-Hep1 tumors [4]; 4 mg/kg, SK-Hep1 tumor tissues, real-time PCR
  biogenesis of mature miRNAs in tumor tissues: significantly increased biogenesis of miR-122, let-7a, miR-29b and miR-146a
SK-Hep1 tumors [5]
  efficacious dose to suppress HCC tumor growth in mice: 5 mg/kg
SK-Hep1 cells
  inhibition of SK-Hep1 cell proliferation (MTT): inhibited SK-Hep1 cell proliferation in a dose-dependent manner
[6]
  haematological or liver toxicity (blood biochemistry): neither free API-1 nor API-LP had haematological or liver toxicity

From paper PMC6643437, “MicroRNA Biogenesis is Enhanced by Liposome-Encapsulated Pin1 Inhibitor in Hepatocellular Carcinoma” (Theranostics, 2019)
